Each compound was assayed on OVCAR-3 (assay: In vitro total growth inhibition against ovarian cancer OVCAR-3 cell lines was reported.). Settings: Homo sapiens, read-out: Log TGI (converted).
Format: functional
Work on Cc1ccc2cccc(NC(=O)c3cc4c(cc3Cl)Sc3nccn3S4(=O)=O)c2n1 yielded a TGI of 11.5 µM.

The compounds below were run on K562 (assay: In vitro total growth inhibition against leukemia K-562 cell lines was reported.). Settings: Homo sapiens, read-out: Log TGI (converted).
Format: functional
Cc1ccc2cccc(NC(=O)c3cc4c(cc3Cl)Sc3nccn3S4(=O)=O)c2n1 showed a TGI of 38 µM.

Each compound was assayed on Tumor Cell line (assay: In vitro total growth inhibition for 50 cell lines was reported as log of molar concentration). Settings: not given.
Format: functional, Homo sapiens
With Cc1ccc2cccc(NC(=O)c3cc4c(cc3Cl)Sc3nccn3S4(=O)=O)c2n1 the “Log GTI” value was -4.01.

These compounds were tested on RPMI-8226 (assay: In vitro growth inhibition against leukemia […] cell line was reported.). Settings: Homo sapiens.
Format: functional
For Cc1ccc2cccc(NC(=O)c3cc4c(cc3Cl)Sc3nccn3S4(=O)=O)c2n1, the GI50 was 1.7 µM.

Each compound was assayed on HOP-92 (assay: In vitro growth inhibition against non-small-cell lung cancer HOP-92 cell line was reported.). Settings: Homo sapiens.
Format: functional
Cc1ccc2cccc(NC(=O)c3cc4c(cc3Cl)Sc3nccn3S4(=O)=O)c2n1 gave a GI50 of 14.5 µM.

What follows are compounds tested on OVCAR-4 (assay: Log of molar concentration leading to 50% cell death against ovarian cancer OVCAR-4 cell line was reported). Settings: Homo sapiens, read-out: Log LC50 (the source's name) (converted).
Format: functional
In the case of Cc1ccc2cccc(NC(=O)c3cc4c(cc3Cl)Sc3nccn3S4(=O)=O)c2n1, the CC50 is reported as 61.7 µM.

These compounds were tested on HOP-62 (assay: In vitro growth inhibition against non-small-cell lung cancer HOP-62 cell line was reported.). Settings: Homo sapiens.
Format: functional
With Cc1ccc2cccc(NC(=O)c3cc4c(cc3Cl)Sc3nccn3S4(=O)=O)c2n1 the GI50 was 0.049 µM.

What follows are compounds tested on LOX IMVI (assay: In vitro growth inhibition against melanoma LOX IMVI cell line was reported.). Settings: Homo sapiens.
Format: functional
With Cc1ccc2cccc(NC(=O)c3cc4c(cc3Cl)Sc3nccn3S4(=O)=O)c2n1 the GI50 was 5.01 µM.

Each compound was assayed on NCI/ADR-RES (assay: In vitro growth inhibition against breast cancer NCI/ADR-RES cell line was reported.). Settings: Homo sapiens.
Format: functional
For Cc1ccc2cccc(NC(=O)c3cc4c(cc3Cl)Sc3nccn3S4(=O)=O)c2n1, the GI50 was 14.5 µM.

The compounds below were run on OVCAR-5 (assay: In vitro growth inhibition against ovarian cancer OVCAR-5 cell line was reported.). Settings: Homo sapiens.
Format: functional
Cc1ccc2cccc(NC(=O)c3cc4c(cc3Cl)Sc3nccn3S4(=O)=O)c2n1 was tested, and the GI50 was 16.2 µM.

What follows are compounds tested on 786-0 (assay: In vitro total growth inhibition against renal cancer […] cell lines was reported.). Settings: Homo sapiens, read-out: Log TGI (converted).
Format: functional
In the case of Cc1ccc2cccc(NC(=O)c3cc4c(cc3Cl)Sc3nccn3S4(=O)=O)c2n1, the TGI is reported as 38 µM.

What follows are compounds tested on NCI-H46 (assay: In vitro total growth inhibition against non-small-cell lung cancer […] cell lines was reported.). Settings: Homo sapiens, read-out: Log TGI (converted).
Format: functional
For Cc1ccc2cccc(NC(=O)c3cc4c(cc3Cl)Sc3nccn3S4(=O)=O)c2n1, the TGI was 7.76 µM.

The compounds below were run on NCI-H522 (assay: Log of molar concentration leading to 50% cell death against non-small-cell lung cancer NCI-522 cell line was reported). Settings: Homo sapiens, read-out: Log LC50 (the source's name) (converted).
Format: functional
With Cc1ccc2cccc(NC(=O)c3cc4c(cc3Cl)Sc3nccn3S4(=O)=O)c2n1 the CC50 was 66.1 µM.

The compounds below were run on DU-145 (assay: Log of molar concentration leading to 50% cell death against prostate cancer […] cell line was reported). Settings: Homo sapiens, read-out: Log LC50 (the source's name) (converted).
Format: functional
Cc1ccc2cccc(NC(=O)c3cc4c(cc3Cl)Sc3nccn3S4(=O)=O)c2n1 showed a CC50 of 42.7 µM.

Each compound was assayed on OVCAR-8 (assay: In vitro total growth inhibition against ovarian cancer OVCAR-8 cell lines was reported.). Settings: Homo sapiens, read-out: Log TGI (converted).
Format: functional
For Cc1ccc2cccc(NC(=O)c3cc4c(cc3Cl)Sc3nccn3S4(=O)=O)c2n1, the TGI was 14.5 µM.

These compounds were tested on SR (assay: In vitro growth inhibition against leukemia SR cell line was reported.). Settings: Homo sapiens.
Format: functional
Work on Cc1ccc2cccc(NC(=O)c3cc4c(cc3Cl)Sc3nccn3S4(=O)=O)c2n1 yielded a GI50 of 2.24 µM.

Each compound was assayed on UACC-62 (assay: In vitro growth inhibition against melanoma UACC-62 cell line was reported.). Settings: Homo sapiens.
Format: functional
Cc1ccc2cccc(NC(=O)c3cc4c(cc3Cl)Sc3nccn3S4(=O)=O)c2n1 was tested, and the GI50 was 14.5 µM.

Each compound was assayed on NCI-H226 (assay: In vitro growth inhibition against non-small-cell lung cancer NCI-H226 cell line was reported.). Settings: Homo sapiens.
Format: functional
Cc1ccc2cccc(NC(=O)c3cc4c(cc3Cl)Sc3nccn3S4(=O)=O)c2n1 was tested, and the GI50 was 15.1 µM.

Each compound was assayed on A498 (assay: In vitro total growth inhibition against renal cancer A-498 cell lines was reported.). Settings: Homo sapiens, read-out: Log TGI (converted).
Format: functional
Cc1ccc2cccc(NC(=O)c3cc4c(cc3Cl)Sc3nccn3S4(=O)=O)c2n1 was tested, and the TGI was 40.7 µM.

Each compound was assayed on OVCAR-8 (assay: Log of molar concentration leading to 50% cell death against ovarian cancer OVCAR-8 cell line was reported). Settings: Homo sapiens, read-out: Log LC50 (the source's name) (converted).
Format: functional
Cc1ccc2cccc(NC(=O)c3cc4c(cc3Cl)Sc3nccn3S4(=O)=O)c2n1 gave a CC50 of 53.7 µM.

The compounds below were run on DU-145 (assay: In vitro total growth inhibition against prostate cancer […] cell lines was reported.). Settings: Homo sapiens, read-out: Log TGI (converted).
Format: functional
Cc1ccc2cccc(NC(=O)c3cc4c(cc3Cl)Sc3nccn3S4(=O)=O)c2n1 gave a TGI of 17.8 µM.

What follows are compounds tested on UACC-257 (assay: In vitro total growth inhibition against melanoma UACC-257 cell line was reported.). Settings: Homo sapiens.
Format: functional
With Cc1ccc2cccc(NC(=O)c3cc4c(cc3Cl)Sc3nccn3S4(=O)=O)c2n1 the GI50 was 13.8 µM.

Each compound was assayed on U-251 (assay: In vitro growth inhibition against CNS cancer U251 cell line was reported.). Settings: Homo sapiens.
Format: functional
Cc1ccc2cccc(NC(=O)c3cc4c(cc3Cl)Sc3nccn3S4(=O)=O)c2n1 showed a GI50 of 3.47 µM.

The compounds below were run on SK-MEL-2 (assay: In vitro growth inhibition against melanoma SK-MEL-2 cell line was reported.). Settings: Homo sapiens.
Format: functional
With Cc1ccc2cccc(NC(=O)c3cc4c(cc3Cl)Sc3nccn3S4(=O)=O)c2n1 the GI50 was 13.2 µM.

What follows are compounds tested on MOLT-4 (assay: In vitro growth inhibition against leukemia MOLT-4 cell line was reported.). Settings: Homo sapiens.
Format: functional
Cc1ccc2cccc(NC(=O)c3cc4c(cc3Cl)Sc3nccn3S4(=O)=O)c2n1 was tested, and the GI50 was 4.57 µM.

The compounds below were run on HT-29 (assay: In vitro total growth inhibition against colon cancer HT-29 cell lines was reported.). Settings: Homo sapiens, read-out: Log TGI (converted).
Format: functional
Work on Cc1ccc2cccc(NC(=O)c3cc4c(cc3Cl)Sc3nccn3S4(=O)=O)c2n1 yielded a TGI of 56.2 µM.

The compounds below were run on HOP-62 (assay: In vitro total growth inhibition against non-small-cell lung cancer HOP-62 cell lines was reported.). Settings: Homo sapiens, read-out: Log TGI (converted).
Format: functional
Cc1ccc2cccc(NC(=O)c3cc4c(cc3Cl)Sc3nccn3S4(=O)=O)c2n1 showed a TGI of 16.2 µM.

These compounds were tested on HCC 2998 (assay: In vitro total growth inhibition against colon cancer HCC2998 cell lines was reported.). Settings: Homo sapiens, read-out: Log TGI (converted).
Format: functional
Cc1ccc2cccc(NC(=O)c3cc4c(cc3Cl)Sc3nccn3S4(=O)=O)c2n1 gave a TGI of 4.68 µM.

Each compound was assayed on MCF7 (assay: In vitro growth inhibition against breast cancer MCF 7 cell line was reported.). Settings: Homo sapiens.
Format: functional
In the case of Cc1ccc2cccc(NC(=O)c3cc4c(cc3Cl)Sc3nccn3S4(=O)=O)c2n1, the GI50 is reported as 3.24 µM.

What follows are compounds tested on M14 (assay: Log of molar concentration leading to 50% cell death against melanoma M14 cell line was reported). Settings: Homo sapiens, read-out: Log LC50 (the source's name) (converted).
Format: functional
For Cc1ccc2cccc(NC(=O)c3cc4c(cc3Cl)Sc3nccn3S4(=O)=O)c2n1, the CC50 was 57.5 µM.

Reference: ChEMBL document CHEMBL1135808, “A new type of mixed anhydride and its applications to the synthesis of 7-substituted 8-chloro-5,5-dioxoimidazo[1,2-b][1,4,2]benzodithiazines with in vitro antitumor activity” (2002)
